Assay results from US10730892B2, “Homoallylamines as formaldehyde-responsive triggers” (The Regents of the University of California, priority 2015, dated 2020).
Where “and” joins values, the source holds several entries; their conditions need not be identical. Equal values may be shown once. Read-outs that look alike come from different tables or passages of the source.

Columns and labels:
[1] = Fluorescence properties of compounds 3, 4, 5 and FP1 (Table 1); format: physicochemical
From the text: Such red-shifted fluorophores are desirable because of low autofluorescence, minimal phototoxicity, and negligible interference from biomolecules when employed in live cell imaging. […] In the presence of FA, a reversible condensation event yielded an iminium intermediate which can undergo a charge-promoted [3,3]-sigmatropic rearrangement-hydrolysis sequence to expel the aryl nitro group and afford a highly fluorescent indole-3-carboxaldehyde product (ΦF=0.11) (Table 1). Of note, the aldehyde is strategically positioned at C3 such that after the reaction cascade, the N1 lone pair electrons can delocalize into the π-system rather than quench fluorescence via an acceptor-excited PeT (a-PeT) pathway. In this regard, silicon rhodol 3, without the carboxaldehyde, is non-fluorescent (Table 1).

[2] = Method: Time points on graph are 0, 30, 60, 90, 120, 150, and 180 min. […] Bars represent normalized fold-changes in response to treatment with each analyte listed at 1 mM for 3 hrs.
In addition to its ability to crosslink biomolecules, FA is cytotoxic through the induction of oxidative stress (Zararsiz et al., Cell Biochem. Fund. 2007, 25:413).

[3] = tested on: HEK293TN cells; conditions: 100 scans at 25% laser power, pinhole 1 airy unit
From the text: (§1) For example, semicarbazide-sensitive amine oxidase (SSAO) is primarily localized to the plasma membrane (Andres et al., J. Histochem. Cytochem. 2001, 49:209). Thus, both HEK293TN and NS1 cells were costained with ER-Tracker Green, LysoTracker Green DND-26, and MitoTracker Green FM, fluorescent indicators that are known to selectively stain the endoplasmic reticulum, lysosome, and mitochondria, respectively in almost all cell types (FIG. 17A and FIG. 17B).

[4] = tested on: HEK293TN and NS1 cells; conditions: 1 μM FP1 for 8 min, imaged after 30 min and after 8 hrs
From the text: as §1

[5] = tested on: HEK293TN cells
Method: FIG. 9 depicts live-cell imaging of HEK293TN cells. […] Cells were irradiated with the 633 nm HeNe laser set at 3% power with a pinhole size of 1 airy unit. The emission was collected between 645 and 800 nm. Scale bar represents 20 μm. Pseudo-coloring represents intensity distribution from highest intensity indicated by white to the lowest intensity designated by black.
FIG. 10 depicts the quantification of observed fluorescence intensity by confocal imaging in HEK293TN cells after incubation with 1 mM, 2.5 mM or 5 mM FA for 1 (light grey bars), 2 (dark grey bars) and 3 hrs (black bars). A DMEM vehicle was added to control cells which was normalized to 1 (white bars). […] For each condition, a minimum of 5 images were averaged (n>5). Errors represent standard deviation.
HEK293TN cells were obtained from Prof. Paul Hergenrother (UIUC, Chemistry) and cultured in phenol-red free Dulbecco's modified eagle medium (DMEM, Corning) supplemented with 10% fetal bovine serum (FBS, Sigma Aldrich), and 1% penicillin/streptomycin (Corning). Neuroscreen-1 cells were obtained from Prof. Kai Zhang (UIUC, Biochemistry) and cultured in Ham's F-12K medium (Sigma Aldrich) supplemented with 15% horse serum (Hyclone), 2.5% fetal bovine serum (FBS, Sigma Aldrich), and 1% penicillin/streptomycin (Corning). Cells were incubated at 37° C. and 5% CO2. One day before imaging, cells were passed and plated on 8-well chambered coverglasses (Lab-Tek) at a density of 40,000 cells per mL (or 20,000 cells per well). Cells would reach 70-80% confluency before imaging. […] Samples of HEK293TN and NS1 cells for flow cytometry were prepared by passaging and seeding each well of a 6-well cluster culture dish (Cyto-One) with 300,000 cells one day before experiments. […] Stained cells were aspirated and serum-free DMEM added. Subsequently, a 10× concentrated FA solution was added to give a final concentration of 1.0 mM. 2.5 mM and 5 mM. After incubation cells with FA, the media was removed and replaced with serum-free DMEM. Finally, cells were trypsinized, pelleted via centrifugation, resuspended in phosphate-buffered saline (PBS) for flow cytometric analysis.
Prior to imaging, cells were allowed to recover in FA-free buffer for 30 min. […] Because FA is a powerful fixative, cell viability assays were performed to determine the cytotoxicity of FA under experimental conditions. A dye exclusion protocol was employed, utilizing trypan blue to selectively stain and distinguish dead cells from those that were viable. […] To further verify that the cell populations under investigation were indeed alive, DAPI, a cell permeable nuclear and chromosome counterstain, was employed to identify intact nuclei (FIG. 16).

[6] = tested on: HEK293TN and NS1 cells; conditions: 2 μM FP1, 1 μM tracker, both cell lines
From the text: Scale bar represents 20 μm.
as §1

## C=CCC(NCc1ccc([N+](=O)[O-])cc1)c1cn(C)c2cc(C)c(C3=C4C=CC(=O)C=C4[Si](C)(C)c4c3cc3c5c4CCCN5CCC3)cc12 (centres unmarked) [FP1]
[1]
  Φ (quantum efficiency, ΦF): undetectable levels
  ε: 29000 M⁻¹ cm⁻¹
  λabs: 620 nm
  λem: 649 nm
[2]; 1 μM FP1, 1 mM acetaldehyde, 3 hrs
  fold fluorescence increase: 1.9 fold
[2]; 1 μM FP1, 1 mM of the various analytes
  cross-reactivity with aldehyde containing species: only minimal cross-reactivity
[2]; 1 mM hydrogen peroxide
  change in fluorescence: no significant change in fluorescence
[2]; cysteine, glutathione, hydrogen sulfide, 1 mM, 3 hrs
  chemical stability in the presence of intracellular reductants: no aberrant reactivity
[3]
  photostability toward repeated irradiation: no decrease in fluorescence
[4]
  dye efflux: change in fluorescence: no statistically significant decrease in fluorescence
[5]; 2 μM FP1, 1 mM FA, 1 hr
  fold increase in fluorescence intensity (confocal): 1.2 fold
[5]; 2 μM FP1, 1 mM FA, 2 hrs
  fold increase in fluorescence intensity (confocal): 1.3 fold
[5]; 2 μM FP1, 1 mM FA, 3 hrs
  fold increase in fluorescence intensity (confocal): 1.6 fold
[5]; 2 μM FP1, 2.5 mM FA, 1 hr
  fold increase in fluorescence intensity (confocal): 1.2 fold
[5]; 2 μM FP1, 2.5 mM FA, 2 hrs
  fold increase in fluorescence intensity (confocal): 1.7 fold
[5]; 2 μM FP1, 2.5 mM FA, 3 hrs
  fold increase in fluorescence intensity (confocal): 2.2 fold
[5]; 2 μM FP1, 5 mM FA, 1 hr
  fold increase in fluorescence intensity (confocal): 2.1 fold
[5]; 2 μM FP1, 5 mM FA, 2 hrs
  fold increase in fluorescence intensity (confocal): 2.6 fold
[5]; 2 μM FP1, 5 mM FA, 3 hrs
  fold increase in fluorescence intensity (confocal): ~3 fold and 2.9 fold and 2.8 fold
[6]
  staining pattern (overlay with ER-Tracker Green): stained the cytoplasm, as well as the endoplasmic reticulum
